Where a SMILES comes first, the peptide text is derived from it. Bridges are numbered along the chain shown (N, C = ends). [ ]: non-standard residue; d: D form. The star is where a group is joined. ξ: configuration not given here. NMeAbu(3,3-F2-piperidino) = CN[C@@H](CCN1CCCC(F)(F)C1)C(=O)O; dhPhe(4-CONHMe,3-OMe) = CNC(=O)c1ccc(CC[C@@H](N)C(=O)O)cc1OC; Phe(3-OMe,4-CONHMe) = CNC(=O)c1ccc(C[C@H](N)C(=O)O)cc1OC; NMePhe(3-Cl) = CN[C@@H](Cc1cccc(Cl)c1)C(=O)O; ξGln(SO2Me) = CS(=O)(=O)NC(=O)CCC(N)C(=O)O; NMehPhe = CN[C@@H](CCc1ccccc1)C(=O)O; NMeF = CN[C@@H](Cc1ccccc1)C(=O)O; NMeI = CC[C@H](C)[C@H](NC)C(=O)O; CH2CONHtBu = CC(C)(C)NC(=O)C*; NMeL = CN[C@@H](CC(C)C)C(=O)O; Thr(3ξ) = CC(O)[C@H](N)C(=O)O; NMeV = CN[C@H](C(=O)O)C(C)C; NMeAbu = CC[C@H](NC)C(=O)O; NMeA = CN[C@@H](C)C(=O)O; Piperidide = C1CCN(*)CC1; NBuGly = CCCCNCC(=O)O; Isopentyl = CC(C)CC*; NPrGly = CCCNCC(=O)O; X3 = C[C@H](O)C*; Sar = CNCC(=O)O; tBu = CC(C)(C)*
assay: in vitro; conditions: human, Caco-2, Caco-2

SMILES	Papp [×10⁻⁶ cm/s]
CCCCN1CC(=O)N(C)[C@@H](C(C)C)C(=O)N[C@H](C(=O)N2CCCCC2)CC(=O)N(C)[C@@H](CC)C(=O)NC(CCC(=O)NS(C)(=O)=O)C(=O)N(C)[C@@H](CC(C)C)C(=O)N(C)[C@@H](Cc2cccc(Cl)c2)C(=O)N[C@@H](CC(C)C)C(=O)N(C)[C@@H](Cc2ccccc2)C(=O)N(C)[C@@H](CC(C)C)C(=O)N[C@@H]([C@@H](C)O)C1=O (stereo partly drawn) [pd63] ([NMeAbu][ξGln(SO2Me)][NMeL][NMePhe(3-Cl)]L[NMeF][NMeL]T[NBuGly][NMeV]D-Piperidide; lactam N-11)	< 0.1
CCCCN1CC(=O)N(C)[C@@H](C(C)C)C(=O)N[C@@H](CC(C)C)C(=O)N(C)[C@@H](Cc2ccccc2)C(=O)N(C)[C@@H](CCN2CCCC(F)(F)C2)C(=O)N[C@H](C(=O)N2CCCCC2)CC(=O)N[C@H](C)C(=O)N(C)[C@@H](Cc2ccccc2)C(=O)N[C@@H](CC(C)C)C(=O)N(C)[C@@H](CC(C)C)C(=O)N[C@@H]([C@@H](C)O)C1=O [pd388] ([dA][NMeF]L[NMeL]T[NBuGly][NMeV]L[NMeF][NMeAbu(3,3-F2-piperidino)]D-Piperidide; lactam N-11)	1.9

same assay, conditions: human, Caco-2, Caco-2 (cm/sec)

SMILES	Papp [×10⁻⁶ cm/s]
CCCCN1CC(=O)N(C)[C@@H](CC(C)C)C(=O)N[C@@H](COC(C)(C)C)C(=O)N(C)[C@@H](Cc2ccccc2)C(=O)N(C)[C@@H](CC(C)C)C(=O)N[C@H](C(=O)N2CCCCC2)CC(=O)N[C@H](C(C)C)C(=O)N(C)[C@@H](C(C)C)C(=O)N[C@@H](Cc2ccc(C(=O)NC)c(OC)c2)C(=O)N(C)[C@@H](CC(C)C)C(=O)N[C@@H]([C@@H](C)O)C1=O [AP27] ([dV][NMeV][Phe(3-OMe,4-CONHMe)][NMeL]T[NBuGly][NMeL]S(tBu)[NMeF][NMeL]D-Piperidide; lactam N-11)	0.91
CC[C@H]1C(=O)N[C@H](CCc2ccc(C(=O)NC)c(OC)c2)C(=O)N(C)[C@@H](CC(C)C)C(=O)N(C)[C@@H](CC(C)C)C(=O)N[C@@H](C(C)C)C(=O)N(C)[C@@H](Cc2ccccc2)C(=O)N(C)[C@@H](CC(C)C)C(=O)N[C@@H]([C@@H](C)O)C(=O)N(C)CC(=O)N(C)[C@@H](CC(C)C)C(=O)N[C@H](C(=O)N2CCCCC2)CC(=O)N1C [AP213] ([NMeAbu][dhPhe(4-CONHMe,3-OMe)][NMeL][NMeL]V[NMeF][NMeL]T[Sar][NMeL]D-Piperidide; lactam N-11)	0.34
CCCCN1CC(=O)N(C)[C@@H](CC(C)C)C(=O)N[C@@H](COCC(=O)NC(C)(C)C)C(=O)N(C)[C@@H](CCc2ccccc2)C(=O)N(C)[C@@H](C)C(=O)N[C@H](C(=O)N2CCCCC2)CC(=O)N[C@H](CC(C)C)C(=O)N(C)[C@@H](CC(C)C)C(=O)N[C@@H](Cc2ccccc2)C(=O)N(C)[C@@H](CC(C)C)C(=O)N[C@@H](C(C)O)C1=O (stereo partly drawn) [AP12] ([dL][NMeL]F[NMeL][Thr(3ξ)][NBuGly][NMeL]S(CH2CONHtBu)[NMehPhe][NMeA]D-Piperidide; lactam N-11)	0.17
CCCN1CC(=O)N(C)[C@@H](Cc2ccccc2)C(=O)N(C)[C@@H](CC(C)C)C(=O)N[C@@H](COCCC(C)C)C(=O)N(C)[C@@H](CC(C)C)C(=O)N[C@H](C(=O)N2CCCCC2)CC(=O)N(C)CC(=O)N(C)[C@@H](Cc2cccc(Cl)c2)C(=O)N[C@@H](COC[C@H](C)O)C(=O)N(C)[C@@H](CC(C)C)C(=O)N[C@@H]([C@@H](C)O)C1=O [AP67] ([Sar][NMePhe(3-Cl)]S(X3)[NMeL]T[NPrGly][NMeF][NMeL]S(Isopentyl)[NMeL]D-Piperidide; lactam N-11)	0.71
CC[C@H](C)[C@H]1C(=O)N[C@@H](Cc2ccc(O)cc2)C(=O)N(C)CC(=O)N(C)[C@@H](CC(C)C)C(=O)N[C@H](C(=O)N2CCCCC2)CC(=O)N(C)[C@@H](C)C(=O)N[C@@H](CC(C)C)C(=O)N(C)[C@@H](C)C(=O)N(C)[C@@H](Cc2ccccc2)C(=O)N[C@@H](C(C)C)C(=O)N(C)[C@@H](C)C(=O)N1C [pd116] ([NMeA]L[NMeA][NMeF]V[NMeA][NMeI]Y[Sar][NMeL]D-Piperidide; lactam N-11)	0.14
CC(C)C[C@@H]1NC(=O)[C@H](C)N(C)C(=O)C[C@@H](C(=O)N2CCCCC2)NC(=O)[C@H](CC(C)C)N(C)C(=O)CN(C)C(=O)[C@H]([C@@H](C)O)NC(=O)[C@H](Cc2ccccc2)N(C)C(=O)[C@H](Cc2ccccc2)N(C)C(=O)[C@H](CC(C)C)NC(=O)[C@H](Cc2ccccc2)N(C)C(=O)[C@H](CC(C)C)N(C)C1=O [pd204] ([NMeA]L[NMeL][NMeF]L[NMeF][NMeF]T[Sar][NMeL]D-Piperidide; lactam N-11)	2
CC[C@H](C)[C@H]1C(=O)N[C@@H](Cc2c[nH]c3ccccc23)C(=O)N(C)CC(=O)N(C)[C@@H](C)C(=O)N[C@H](C(=O)N2CCCCC2)CC(=O)N(C)[C@@H](C)C(=O)N[C@@H](CC(C)C)C(=O)N(C)[C@@H](CC(C)C)C(=O)N(C)[C@@H](CC(C)C)C(=O)N[C@@H](C)C(=O)N(C)[C@@H](CC(C)C)C(=O)N1C [pd101] ([NMeA]L[NMeL][NMeL]A[NMeL][NMeI]W[Sar][NMeA]D-Piperidide; lactam N-11)	0.13

From patent US20230096766A1, “AMINO ACID HAVING FUNCTIONAL GROUP CAPABLE OF INTERMOLECULAR HYDROGEN BONDING, PEPTIDE COMPOUND CONTAINING SAME AND METHOD FOR PRODUCTION THEREOF” (Chugai Seiyaku Kabushiki Kaisha, priority 2018, published 2023)
